Source: the NIST ThermoML archive (doi:10.1016/j.tca.2014.11.028)
Numbers after ± are expanded uncertainties.

What was measured:
[1] = xn = mol fraction of the nth substance listed; settings: 101 kPa, Liquid, Vibrating tube method
[2] = 101 kPa, Liquid, Vibrating tube method

## C[N+](C)(C)CCO.[Cl-] [choline chloride] + OCCO
[1]; 283.15 K, x1 = 0.3333
  mass density: 1122.9 ± 1.1 kg/m3
[1]; 293.15 K, x1 = 0.3333
  mass density: 1117.1 ± 1.1 kg/m3
[1]; 303.15 K, x1 = 0.3333
  mass density: 1111.4 ± 1.1 kg/m3
[1]; 313.15 K, x1 = 0.3333
  mass density: 1105.7 ± 1.1 kg/m3
[1]; 323.15 K, x1 = 0.3333
  mass density: 1100.1 ± 1.1 kg/m3
[1]; 333.15 K, x1 = 0.3333
  mass density: 1094.7 ± 1.1 kg/m3
[1]; 343.15 K, x1 = 0.3333
  mass density: 1088.7 ± 1.1 kg/m3
[1]; 353.15 K, x1 = 0.3333
  mass density: 1081.9 ± 1.1 kg/m3
[1]; 363.15 K, x1 = 0.3333
  mass density: 1074.4 ± 1.1 kg/m3

## O=C(O)CC(=O)O [propanedioic acid] + C[N+](C)(C)CCO.[Cl-]
[1]; 283.15 K, x2 = 0.3333
  mass density: 1191.5 ± 1.1 kg/m3
[1]; 293.15 K, x2 = 0.3333
  mass density: 1185.1 ± 1.1 kg/m3
[1]; 303.15 K, x2 = 0.3333
  mass density: 1178.6 ± 1.1 kg/m3
[1]; 313.15 K, x2 = 0.3333
  mass density: 1172.3 ± 1.1 kg/m3
[1]; 323.15 K, x2 = 0.3333
  mass density: 1166 ± 1.1 kg/m3
[1]; 333.15 K, x2 = 0.3333
  mass density: 1160.3 ± 1.1 kg/m3
[1]; 343.15 K, x2 = 0.3333
  mass density: 1154 ± 1.1 kg/m3
[1]; 353.15 K, x2 = 0.3333
  mass density: 1146.6 ± 1.1 kg/m3
[1]; 363.15 K, x2 = 0.3333
  mass density: 1138.8 ± 1.1 kg/m3

## O [water]
[2]; 283.15 K
  mass density: 999.7 ± 1 kg/m3
[2]; 323.15 K
  mass density: 988 ± 1 kg/m3
[2]; 333.15 K
  mass density: 983.2 ± 1 kg/m3
[2]; 343.15 K
  mass density: 977.8 ± 1 kg/m3
[2]; 353.15 K
  mass density: 971.7 ± 1 kg/m3
[2]; 363.15 K
  mass density: 965 ± 1 kg/m3
